“Also recorded” adds a separate entry of the source. Blank lines part the entries; values can stand above or below the molecule they belong to.
Columns and labels:
[1] = test system: renin-induced amnesia (passive avoidance); experiment: Renin-disrupted passive avoidance retention; assay type: in vivo, male Sprague-Dawley rats; details: for effect on renin-induced amnesia: IVT, co-administered with renin
Description: RENIN-DISRUPTED PASSIVE AVOIDANCE RETENTION
Experimentally naive male Sprague-Dawley rats 100 to 125 days oil (Charles River Breeding Laboratories, Kingston, N.Y.), weighing between 175 to 200 gm were used. The animals were housed four per cage (45.0L×20.0H×26.0W cm) with free access to food and water. They were maintained on a 12 h light/dark cycle (lights on 0600 h) and at a room temperature of 22±1° C. with relative humidity of 50±10%.
The experimental sessions were conducted in a two-compartment passive avoidance box. One compartment, made of clear plastic with a perforated clear plastic floor, measured 21(L)×24.5(H)×17(W) cm and was illuminated with a 60 watt incandescent light bulb placed 36 cm above the floor. The other compartment, made of black plastic, measured 30.5 (L)×20.3 (H)×21.5 (W) cm with a floor made of 4 mm stainless steel rods spaced 1.2 cm apart. A grid floor shocker (Coulbourn Instruments) was connected to the steel rods and provided scrambled footshock. The two compartments were separated by a solenoid-operated slide door (Lafayette Instrument Co., Lafayette, Ind.). An electronic counter (Coulbourn Instruments), triggered by the opening or closing of the slide door, recorded acquisition and retention latencies (latencies were defined as the time it took an animal to enter the dark compartment).
Passive avoidance training began by placing the rat into the clear compartment of the two-compartment passive avoidance box. Following a 10 sec delay, the slide door to the dark compartment was raised. Once the rat moved completely into the dark compartment (all four paws on the shock grid floor) the slide door was lowered, and after a 10 sec. delay, a 1.0 mA shock was applied to the grid floor for three sec. A second three s shock was delivered after an additional 10 sec delay. The rats were immediately removed from the dark compartment and returned to their home cage. A retention test was given 24 h later. It proceeded in the same manner as the training session except that no shock was applied to the grid floor when the rats were provided access to the dark compartment for a maximum of 300 sec.
All drugs were administered IVT 60 minutes prior to acquisition training in a volume of 5 μl. Doses are expressed as the free base weight of each compound.

AII-1 receptor subtype = experiment: Block of AII receptor subtypes, AII-1 (statement in words); assay type: binding
AII-2 receptor = target: T1, AII-2 receptor (Rattus norvegicus, UniProt P35351); experiment: biochemical
T1 sequence (P35351 1-363): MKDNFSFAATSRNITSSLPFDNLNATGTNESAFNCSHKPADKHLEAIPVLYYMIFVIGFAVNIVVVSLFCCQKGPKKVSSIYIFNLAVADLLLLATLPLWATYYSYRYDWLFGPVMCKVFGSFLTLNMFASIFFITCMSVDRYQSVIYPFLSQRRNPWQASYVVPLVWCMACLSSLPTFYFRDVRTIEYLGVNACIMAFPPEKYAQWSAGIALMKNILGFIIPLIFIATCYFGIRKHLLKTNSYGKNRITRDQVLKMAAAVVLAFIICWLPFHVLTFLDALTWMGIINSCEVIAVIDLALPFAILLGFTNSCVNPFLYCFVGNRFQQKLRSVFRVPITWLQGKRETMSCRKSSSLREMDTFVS
Description: IC50 was determined by displacement of [^125 I]AII from the receptor by the indicated compound.

AII-2 receptor subtype = experiment: Block of AII receptor subtypes, AII-2 (statement in words); assay type: binding
AII-1 receptor = experiment: AII-1 site binding: displacement of [125I]AII in adrenal cortex microsomes in presence of 10^-5 M EXP655 (Table 1); parameters: species or system rat; details: 10^-5 M EXP655 present, [125I]AII displacement
uphill avoidance = details: acute, 30 mg/kg PO; cited from earlier work
[2] = test system: scopolamine-induced amnesia; details: three times per day, 1, 3 and 10 mg/kg PO; cited from earlier work
[3] = test system: scopolamine-induced impairment of eight arm radial maze performance; details: 3 mg/kg IP; cited from earlier work
[4] = test system: ACh in the striatum and hypothalamus; details: acute or repeated administration; cited from earlier work
[5] = test system: potassium-stimulated release of [3H]ACh; details: rat entorhinal cortex, cited from earlier work
[6] = test system: passive avoidance response; details: injected into dorsal neostriatum; cited from earlier work
[7] = test system: memory of previously learned tasks; details: in vivo; cited from earlier work
avoidance learning = details: cited from earlier work
light/dark habituation = details: cited from earlier work
[8] = test system: AII binding sites in the brain; experiment: Binding of AII antagonists to sections of brain slices
[9] = test system: AII in cerebrospinal fluid (CSF); details: cited from earlier work

AII-1 receptor block / affinity (AII-1 receptor subtype): AII-1 receptor antagonists
Molecule: CCCc1nc(C(F)(F)F)c(C(=O)O)n1Cc1ccc(-c2ccccc2-c2nnn[nH]2)cc1 [Compound C, 2-n-propyl-1-[(2'-(1H -tetrazol-5-yl)biphenyl-4-yl)methyl]-4-trifluoromethylimidazole-5-carboxylic acid]
effect on renin-induced amnesia [1]: protected against the amnesia

IC50 (AII-2 receptor): 2400 nM | IC50 (AII-1 receptor): 22 nM
Molecule: CCCc1nc(-c2ccccc2)c(C=O)n1Cc1ccc(-c2ccccc2-c2nnn[nH]2)cc1 [Compound A, 1-[(2'-(1H tetrazol-5-yl)biphenyl-4-yl)methyl]-4-phenyl-2-propylimidazole-5-carboxaldehyde]
AII-1 receptor block / affinity (AII-1 receptor subtype): show affinity for both AII-1 and AII-2 receptors | AII-2 receptor block / affinity (AII-2 receptor subtype): show affinity for both AII-1 and AII-2 receptors

IC50 (AII-2 receptor): 0.3 nM | IC50 (AII-1 receptor): 0.7 nM
Molecule: CNCC(=O)N[C@@H](CCCN=C(N)N)C(=O)N[C@H](C(=O)N[C@@H](Cc1ccc(O)cc1)C(=O)N[C@H](C(=O)N[C@@H](Cc1cnc[nH]1)C(=O)N1CCC[C@H]1C(=O)N[C@@H](C)C(=O)O)C(C)C)C(C)C [Saralasin]

Molecule: CCOC(=O)C(CCc1ccccc1)NC(C)C(=O)N1CC2(CC3CCC2CC3)CC1C(=O)O (stereo not drawn) [Hoe 288]
uphill avoidance performance during retention testing (uphill avoidance): improved performance during retention testing | scopolamine-induced PA amnesia [2]: partially reversed the amnesia | effects of muscarinic receptor blockade on radial maze performance [3]: partially antagonized the effects of muscarinic receptor blockade | ACh in the striatum and hypothalamus [4]: significant decrease in ACh in the striatum and hypothalamus

AII-1 receptor block / affinity (AII-1 receptor subtype): AII-1 receptor antagonists
Molecule: CCCc1nc(C(F)(F)F)c(CO)n1Cc1ccc(-c2ccccc2-c2nnn[nH]2)cc1 [Compound D, 2-n-propyl-5-hydroxymethyl-1-[(2'-(1H-tetrazol-5-yl)biphenyl-4-yl)methyl]-4-trifluoromethylimidazole]
effect on renin-induced amnesia [1]: protected against the amnesia

Molecule: AII: Angiotensin II (AII), a circulating hormone, now thought to act as a neuropeptide in the central nervous system (DRVYIHPF; Angiotensin-2; UniProt P01019 25-32, looked up)
basal ACh levels [5]: without effects on basal levels | potassium-stimulated release of ACh [5]: reduced potassium-stimulated release of ACh | retention of passive avoidance response [6]: showed a disruption in retention of a PA response | IC50 (AII-1 receptor): 1.5 nM

Molecule: NCCCC[C@H](OP(=O)(O)CCCCc1ccccc1)C(=O)N1CCC[C@H]1C(=O)O [SQ 29852]
anticholinergic effect on performance [7]: ameliorate, at least in part, an anticholinergic effect on performance | effects on memory of previously learned tasks [7]: protective effects on memory of previously learned tasks

Molecule: C[C@H](CS)C(=O)N1CCC[C@H]1C(=O)O [captopril]
renin-induced avoidance disruption (avoidance learning; captopril IVT prior to renin): prevented the renin-induced avoidance disruption | effect of captopril on renin-induced amnesia ([1]; IVT captopril, applicant's laboratory): renin-induced amnesia can be prevented | scopolamine-induced disruption of light/dark habituation performance (light/dark habituation; daily treatment): prevented | rate of acquisition of light/dark habituation performance (light/dark habituation; subchronic treatment): increased the rate of acquisition of light/dark habituation performance

IC50 (AII-2 receptor): 4300 nM | IC50 (AII-1 receptor): 290 nM
Molecule: CCCc1nc(-c2ccccc2)c(C=O)n1Cc1ccc(-c2ccccc2C(=O)O)cc1 [Compound B, 1-[(2'-carboxybiphenyl-4-yl)methyl]-4-phenyl-2-propylimidazole-5-carboxaldehyde]
AII-1 receptor block / affinity (AII-1 receptor subtype): show affinity for both AII-1 and AII-2 receptors | AII-2 receptor block / affinity (AII-2 receptor subtype): show affinity for both AII-1 and AII-2 receptors

IC50 (AII-1 receptor): 300000 nM
Molecule: Cc1cc(Cn2cnc3c2CC(C(=O)O)N(C(=O)C(c2ccccc2)c2ccccc2)C3)ccc1N (stereo not drawn) [EXP655, 1-(4-amino-3-methylphenyl)methyl-5-diphenylacetyl-4,5,6,7-tetrahydro-1H-imidazo[4,5-c]pyridine-6-carboxylic acid]
sensitivity of AII binding sites in the brain [8]: the majority of binding sites in the brain are DTT-insensitive and EXP655-sensitive | effect on renin-induced amnesia [1]: much less effective in preventing the amnesia

Molecule: lysine-8-vasopressin
retention of passive avoidance response [6]: no effect

Molecule: [1-sarcosine, 8-threonine]angiotensin II
antagonism of AII effect on ACh release ([5]; with AII): antagonized

Molecule: NC(=O)[C@@H]1CCCN1C(=O)[C@H](Cc1cnc[nH]1)NC(=O)[C@@H]1CCC(=O)N1 [thyrotropin releasing hormone]
retention of passive avoidance response [6]: no effect

B1: renin: Renin (Sigma Chemicals), a stimulator of endogenous AII biosynthesis (protein, UniProt P00797 67-406, looked up)
Renin: LTLGNTTSSVILTNYMDTQYYGEIGIGTPPQTFKVVFDTGSSNVWVPSSKCSRLYTACVYHKLFDASDSSSYKHNGTELTLRYSTGTVSGFLSQDIITVGGITVTQMFGEVTEMPALPFMLAEFDGVVGMGFIEQAIGRVTPIFDNIISQGVLKEDVFSFYYNRDSENSQSLGGQIVLGGSDPQHYEGNFHYINLIKTGVWQIQMKGVSVGSSTLLCEDGCLALVDTGASYISGSTSSIEKLMEALGAKKRLFDYVVKCNEGPTLPDISFHLGGKEYTLTSADYVFQESYSSKKLCTLAIHAMDIPPPTGPTWALGATFIRKFYTEFDRRNNRIGFALAR
avoidance learning (avoidance learning; renin IVT): disruption of avoidance learning | memory effect of renin ([1]; renin IVT): produces a reliable memory deficit; also recorded: produces a dose-related amnesia in a PA task | Median Retention Latency ([1]; renin alone 5.0 μg/5 μL IVT): 17 s | AII in CSF after renin ([9]; renin IVT): about 5,000 fmol per mL | AII in CSF before renin ([9]; starting level): 40 fmol per mL

— US5140037A, “Treatment of central nervous system disorders with imidazole angiotensin-II receptor antagonists” (E. I. du Pont de Nemours and Company, priority 1990, dated 1992)
